Measurements published in patent publication US20230399378A1, “PEPTIDE-BASED DELIVERY OF AGENTS” (THE FLOREY INSTITUTE OF NEUROSCIENCE AND MENTAL HEALTH, priority 2020, published 2023).

Assays:
[1] = assay type: in vivo, mice; settings: 8 mg/kg; dose escalation at 5, 8 and 10 mg/kg; data not shown
SMN2 [2] = experiment: SMN2 splice-switching for exon 7 inclusion by RT-qPCR in SMA Type I patient-derived fibroblasts (Example 2); assay type: cell-based, human; settings: treated 4 hrs, then 20 hrs growth medium, mean±SEM
Source text: FIG. 3. (A) SMN2 pre-mRNA exon-7 skipping and production of 80-90% SMN2Δ7 mRNA transcripts. Peptide-PMO binding to Intron-splicing silencer (ISS-N1) and restoration of SMN2 splicing and production of full-length SMN2 mRNA transcripts. The positions of forward and reverse primers highlighted on full-length mRNA. (B)-(C) Effect of administration of peptides linked to PMO for SMN2 exon 7 inclusion, measured as change in the level of full length SMN2/HPRT1 in SMA patient-derived fibroblasts, each at two concentrations, 0.5 μM and 1 μM (or 1 μM and 5 μM in the case of PMO alone). UT, untreated. (B) For PMO constructs, from left to right: PMO; ApoE(141-150)-PMO; ApoE(133-150)-PMO. (C) For PMO constructs, from left to right: PMO; HA2-PMO; GALA-PMO; NLS-PMO; ApoE(141-150)-PMO; HA2-ApoE(141-150)-PMO; GALA-ApoE(141-150)-PMO; NLS-ApoE(141-150)-PMO; H4-ApoE(141-150)-PMO; A4-ApoE(141-150)-PMO. *P<0.05,**P<0.001, ***P<0.0001 cf. Untreated (control) and PMO (1 and 5 μM); #P<0.001 cf. GALA-/NLS-/H4-ApoE(141-150)-PMO (1 μM), ^<0.001 cf. ApoE(133-150)-PMO (0.5 and 1 μM), ^OP<0.001 cf. ApoE(141-150)-PMO (1 μM), ^&P<0.05 cf.
The inventors then evaluated cellular uptake and activity of these peptide-PMO conjugates in SMA Type I patient-derived fibroblasts with two copies of SMN2. Efficiency of uptake was assessed by RT-qPCR using SMN2 splice-switching for exon 7 inclusion (see FIG. 3A).
SMA Type I patient-derived fibroblasts (SMN2^+/+, GM03813, Coriell Cell Repositories) were maintained in Dulbecco's Modified Eagle's Medium (DMEM), supplemented with 10% foetal bovine serum (FBS), 1% Penicillin/Streptomycin and 1% L-glutamine (L-glu) at 37° C. Cells were plated in 6-well plates at a density of 3×10^5/well in 6 well plates one day prior to treatment with PMO and peptide-PMO conjugates. Cells used were from passage 8-22. PMO and the peptide-PMO conjugates were dissolved in nuclease-free water and diluted to appropriate concentrations in Opti-MEM reduced serum medium. Cells were treated for 4 hrs at 37° C. The transfection medium was then removed and replaced with growth medium in which the cells were incubated for 20 hrs.
Cells were washed with PBS and total cellular RNA was extracted using Trizol (TRI Reagent®, Sigma) according to the manufacturer's instructions (Life Technologies). 400 ng purified RNA was reverse transcribed into cDNA using BioRad iScript Reverse Transcription Supermix kit according to the manufacturer's instructions. The reverse transcription was performed using the Veriti Thermal Cycler (ThermoFisher Scientific) with the thermal cycling conditions: 25° C. for 5 min, 46° C. for 20 min, 95° C. for 1 min followed by a 4° C. holding period.
Quantitative PCR (20 ng cDNA/well) was carried out in a 96-well plate in triplicate using SsoAdvanced Universal SYBR Green Supermix on a Biorad CFX96 Touch™ Real-Time PCR detection system. The amplification was carried out using full-length SMN2-specific primers: Ex-6 Forward 5′-[…]-3′ (SEQ ID NO:10) and Ex7-8 reverse 5′[…]-3′ (SEQ ID NO:11). Human HPRT1 was used as the internal reference gene with forward primer sequence 5′-[…]-3′ (SEQ ID NO:12) and reverse primer sequence 5′-[…]-3′ (SEQ ID NO:13). The ΔΔCt method was used to correct the Ct values against the HPRT1 Ct values. The values obtained were normalised to the untreated control values which were set to 1. Statistical analysis was carried out using one-way ANOVA with post-hoc Bonferroni for multiple groups comparison (GraphPad Prism V.8, 2018). All data are expressed as mean±SEM from at least three independent experiments with p<0.05 considered significant.

SMN2 [3] = experiment: Full-length SMN2 RNA in tissues of transgenic SOD1+/- SMN2+/- mice by RT-qPCR; assay type: in vivo; settings: 8 mg/kg/week for 5 weeks, tail vein injection, 7 days after final administration, mean±SEM, versus saline-treated control
Procedure: FIG. 6. SMN upregulation in SOD1^G93A mice. A, administration regime. B, Full length (FL) SMN2 levels in brain, spinal cord (S. cord), kidney and quadriceps (Quad) as determined by RT-qPCR in untreated mice (left hand columns) and mice treated with SEQ ID NO:6-PMO conjugate (right hand columns) after administration at a dose of 8 mg/kg weekly for five weeks. *, p<0.05; **, p<0.001; ***, p<0.0001 cf. saline-treated group.
A peptide consisting of the amino acid sequence of SEQ ID NO:6 was conjugated to the PMO antisense oligonucleotide of SEQ ID NO:9 via a non-reducible thioether (thiol-maleimide) bond as described in Example 1. […] Transgenic SOD1^+/− SMN2^+/− mice (n=5) at P60 were treated with Ac-HA2-ApoE(133-150)-PMO conjugate at 8 mg/kg/week for 5 weeks via tail vein injection. Age-matched control mice (n=6) were given saline. Tissues (brain, spinal cord, kidney and quadriceps) were harvested 7 days after final administration. The level of full-length SMN2 RNA was measured using RT-qPCR as above. The level of full-length SMN2 was normalised to mouse HPRT1 with forward primer sequence 5′-[…]-3′ (SEQ ID NO:14) and reverse primer sequence 5′[…]-3′ (SEQ ID NO:15). Data were expressed as mean±SEM. The statistical significances between saline-treated and Ac-HA2-ApoE(133-150)-PMO-treated groups were determined using the Student's t test. […]

[4] = tested on: SMA patient-derived fibroblasts; experiment: Confocal fluorescence uptake of Cy5-labelled peptide-PMO conjugates in SMA fibroblasts; assay type: cell-based, human; settings: 1 μM
Procedure: FIG. 4. Representative confocal fluorescence microscopy images of SMA patient-derived fibroblasts treated with 1 μM of Cy5-labelled: (A) ApoE(141-150)-PMO; (B) HA2-ApoE(141-150)-PMO; (C) ApoE(133-150)-PMO; and (D) HA2-ApoE(133-150)-PMO, for 1 hr at 37° C.
SMA fibroblasts (6.0×10^4 cells/well) were plated onto a p-Slide 4 Well Ph+ Glass Bottom chamber slides precoated with poly-L-ornithine (Ibidi GmbH). After 24 hr, cells were incubated for 1 hr with Cy5-labelled peptide-PMO conjugates (1 μM or 5 μM) diluted in serum free Opti-MEM. At 10 min to end of 1 hr incubation, Hoechst (1:1000 dilution) was added to each well.

fibroblasts = experiment: Viability of fibroblasts by MTS assay (cytotoxicity); assay type: cell-based, human
Procedure: FIG. 5. Effect of the endosomal escape domain HA2 and lipidation of peptide-PMO conjugates on the viability of fibroblasts determined using MTS assay. UT, untreated control.
The peptide-PMO conjugates were tested up to 10 μM which is 10-fold greater than the concentration needed to achieve a high level of activity.

[5] = intrathecal injection; cited from earlier work

With “Ac-GLFHAIAHFIHGGWH-X-LRVRLASHLRKLRKRLLR-X-C-PMO [HA2-ApoE(133-150)-PMO]” the tolerability [1] was “well-tolerated without any signs of adverse effects”, the “level of exon-7 inclusion activity (full length SMN2/HPRT1, normalised to untreated control set to 1)” value (SMN2 [2]; 0.5 μM) was 2.02±0.12 and the “level of exon-7 inclusion activity (full length SMN2/HPRT1, normalised to untreated control set to 1)” value (SMN2 [2]; 1 μM) was 2.8±0.13. For the same substance, the “level of full length SMN2 RNA (normalised to mouse HPRT1)” value (SMN2 [3]; brain) was 1.19±0.06, the “level of full length SMN2 RNA (normalised to mouse HPRT1)” value (SMN2 [3]; spinal cord) was 1.56±0.1 and the intracellular fluorescence pattern ([4]; 1 hr at 37° C.) was “higher fluorescence intensity with a more diffused pattern”. For the same substance, the “cellular uptake on addition of endosomal escape domain HA2” value ([4]; 1 hr, versus counterparts without HA2) was “significantly enhanced cellular uptake”, the “effect on cell viability” value (fibroblasts; at 10 μM) was “decrease in cell viability” and the “effect on cell viability” value (fibroblasts; up to 5 μM) was “None of the P-PMO conjugates had a significant effect on cell viability”.

For “TCACTTTCATAATGCTGG (chemistry not given here) [Nusinersen, FDA-approved antisense oligonucleotide for the treatment of spinal muscular atrophy]”, the “side effects such as postprocedural headache and backpain, share of adult patients” value [5] is given as 32%.
